Where two headings read alike, the source gives them in different places.
How the values were obtained:
[1] = tested on: Coxsackie Virus B1 (Coxs); test: Viral plaque reduction, Coxs on Vero cells; format: cell-based; details: Table 1, 50% plaque reduction, 37° C, read-out: MIC, Coxs
in vitro [2] = details: human, hela cells
HRV-14 = test: Viral plaque reduction, HRV-14 on HeLa cells; format: cell-based, human rhinovirus; details: for EC50: Rhinovirus B, HeLa cells, read-out: MIC, HRV-14; for S.I. (Selectivity Index): MTL/MIC ratio / S.I. (Selectivity Index): ratio MTL/MIC: HeLa MTL / HRV-14 MIC
[3] = tested on: Vesicular Stomatitis Virus (VSV); test: microbe, parasite or virus in culture; format: cell-based; details: Vero, read-out: MIC, VSV
Virus Vaccinicum (VV) = test: Viral plaque reduction, VV on Vero cells; format: cell-based; details: Table 1, 50% plaque reduction, 37° C, read-out: MIC, VV
[4] = tested on: Poliomyelitis Virus type 1 (Sb-1); test: microbe, parasite or virus in culture; format: cell-based; details: Vero, read-out: MIC, Sb-1
[5] = tested on: Herpes Simplex Virus type 1 (HSV-1); test: Viral plaque reduction, HSV-1 on Vero cells; format: cell-based; details: Human alphaherpesvirus 1, Vero, read-out: MIC, HSV-1
in vitro [6] = details: monkey, vero cells
rhinovirus serotype 14 = test: Protection of HeLa cells from rhinovirus-induced cytopathogenicity (MTT), serotype 14; details: Enterovirus, 72 h, read-out: MIC, serotype 14
[7] = tested on: different rhinoviruses serotypes; test: Protection of HeLa cells from rhinovirus-induced cytopathogenicity (MTT), all serotypes of Table 3; details: for EC50: Enterovirus, HeLa, 72 h, read-out: MIC, summary over the serotypes; for S.I.: Table 3, nine serotypes, HeLa cells
rhinovirus serotype 21 = test: Protection of HeLa cells from rhinovirus-induced cytopathogenicity (MTT), serotype 21; details: Enterovirus, 72 h, read-out: MIC, serotype 21
rhinovirus serotype 30 = test: Protection of HeLa cells from rhinovirus-induced cytopathogenicity (MTT), serotype 30; details: Enterovirus, 72 h, read-out: MIC, serotype 30
rhinovirus serotype 2 = test: Protection of HeLa cells from rhinovirus-induced cytopathogenicity (MTT), serotype 2; details: Enterovirus, 72 h, read-out: MIC, serotype 2
rhinovirus serotype 22 = test: Protection of HeLa cells from rhinovirus-induced cytopathogenicity (MTT), serotype 22; details: Enterovirus, 72 h, read-out: MIC, serotype 22
rhinovirus serotype 86 = test: Protection of HeLa cells from rhinovirus-induced cytopathogenicity (MTT), serotype 86; details: Enterovirus, 72 h, read-out: MIC, serotype 86
rhinovirus serotype 15 = test: Protection of HeLa cells from rhinovirus-induced cytopathogenicity (MTT), serotype 15; details: Enterovirus, 72 h, read-out: MIC, serotype 15
rhinovirus serotype 50 = test: Protection of HeLa cells from rhinovirus-induced cytopathogenicity (MTT), serotype 50; details: Enterovirus, 72 h, read-out: MIC, serotype 50
rhinovirus serotype 89 = test: Protection of HeLa cells from rhinovirus-induced cytopathogenicity (MTT), serotype 89; details: Enterovirus, 72 h, read-out: MIC, serotype 89
rhinoviruses = details: literature; interaction with proteins of the virus capsid; cited from earlier work
[8] = HRV14, Table 1 and text, 50% plaque reduction, 33° C
[9] = Table 2, 50% reduction of HRV14 plaques

SMILES	EC50 [1] [nM]	MNTC (in vitro [2]) [µM]	EC50 (HRV-14; [8]) [nM]	S.I. (Selectivity Index): MTL/MIC ratio (HRV-14; Table 1 and text)	EC50 [3] [nM]	EC50 (Virus Vaccinicum (VV)) [nM]	EC50 [4] [nM]	EC50 [5] [nM]	MNTC (in vitro [6]) [µM]	cytotoxicity levels (HeLa cells)	EC50 (rhinovirus serotype 14) [nM]	EC50 [7] [nM]	S.I. [7]	EC50 (rhinovirus serotype 21) [nM]	EC50 (rhinovirus serotype 30) [nM]	EC50 (HRV-14; [9]) [nM]	S.I. (Selectivity Index): ratio MTL/MIC (HRV-14; Table 2)	EC50 (rhinovirus serotype 2) [nM]	EC50 (rhinovirus serotype 22) [nM]	EC50 (rhinovirus serotype 86) [nM]	other results
Cn1cc(C(=O)CCCCOc2ccc(C3=NCCO3)cc2)cc1C=O [Compound 395]	> 280000	> 425	5000	> 85	> 280000	> 280000	> 280000	> 280000	> 280												activity and selectivity to HRV-14 compared with the two previously known compounds (HRV-14; Table 1): less effective, but even more selective to HRV-14
O=C(CCCCOc1ccc(C2=NCCO2)cc1)c1ccc(Cl)s1 [Compound 366]	> 275000	> 410	50		> 275000	> 275000	200000	> 275000	> 275	low cytotoxicity levels											
Cn1cccc1C(=O)CCCCOc1ccc(C2=NCCO2)cc1 [Compound 414]	> 300000	> 610	800	> 762	> 300000	> 300000	> 300000	> 300000	> 300	low cytotoxicity levels											
Cc1ccc(C(=O)CCCCOc2ccc(C3=NCCO3)cc2)s1 [Compound 522]		> 291									300	2000	> 145	1700	1400	2900	> 100	1100	11600	140	EC50 (rhinovirus serotype 15): 300 nM; EC50 (rhinovirus serotype 50): 1100 nM; EC50 (rhinovirus serotype 89): 300 nM
Cc1csc(C(=O)CCCCOc2ccc(C3=NCCO3)cc2)c1 [Compound 529, 2-[5-[4-(4,5-Dihydro-2-oxazolyl)phenoxy]pentanoyl]-4-methylthiophene]		291									1100	4100	71	5800	5800	6900	42	2900	11600	900	EC50 (rhinovirus serotype 15): 200 nM; EC50 (rhinovirus serotype 50): 4300 nM; EC50 (rhinovirus serotype 89): 2900 nM
CCCCCCCCCCCCCCOc1ccc(C(C)=O)o1 [RMI-15,731, 1-[5-(tetradecyloxy)-2-furanyl]ethanone]																					inhibition of rhinoviruses (rhinoviruses): inhibit a wide range of rhinoviruses

— US5278184A, “Synthetic derivatives of pyrrole and pyrrolidine suitable for the therapy of infections caused by rhinoviruses” (Repla Chemical Ltd., priority 1991, dated 1994)
